Results: patent US20260250325A1, “Antiviral Polypeptide Membrane Fusion Inhibitor, and Preparation Method and Application Thereof” (priority 2025, published 2026)
The star is where a group is joined. Succinyl(4-O-cholesteryl) = CC(C)CCC[C@@H](C)[C@H]1CC[C@H]2[C@@H]3CC=C4C[C@@H](OC(=O)CCC(=O)*)CC[C@]4(C)[C@H]3CC[C@]12C

Key:
Format in all cases: cell-based
RSV A long virus strain = conditions: RSV A long virus strain, HEp-2 cells, plaque reduction, 1 day; read-out: IC50
In short: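 Plaque reduction in HEp-2 cells: virus (100 PFU/well) and serially diluted compound (8 concentrations) mixed 1 h, adsorbed 2 h, then overlaid with 0.8% CMC medium plus compound for 1 day at 37 °C. Spots counted after anti-RSV immunostaining; IC50 from normalized inhibition, CC50 from viability data.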

hMPV B1 = conditions: Vero cells, plaque reduction
In short: (§1)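 Plaque reduction in Vero cells (40000/well), 8 concentrations in duplicate; compound pre-mixed with ~200 PFU virus 1 h at 33° C, adsorbed 2 h at 37° C, then overlay with compound, 0.8% CMC, 5 μg/ml trypsin, 0.5% DMSO for 1 day at 33° C. Plaques immunostained (TrueBlue) and counted; EC50 by four-parameter fit.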

hMPV A2 = conditions: Vero cells, plaque reduction
In short: as §1

Substance | IC50 (RSV A long virus strain) [nM] | EC50 (hMPV B1) [nM] | EC50 (hMPV A2) [nM]
Ac-WDEFDASISQVNEKINQSLEEIRKSDELLHNVNAGLGSGSGK(Succinyl(4-O-cholesteryl))-NH2 [Compound 27] | 25.7 | 10.5 | 78.3
Ac-WDEFDASISQVNEKINQSLEEIRKSDELLHNVNALEAAAKK(Succinyl(4-O-cholesteryl))-NH2 [Compound 38] | 14.6 | 16.6 | 128
